Data on 61 compounds can be found in a melting point compilation (Tetko et al.; mined from patent text by program, amines drawn as free bases though some values may be those of a salt).

Residues, ends and D or L forms follow the SMILES beside them. *: point of attachment. Cbz = O=C(OCc1ccccc1)*

For `COc1ccc(-c2cc(=O)n(Cc3c(Cl)cc(Cl)cc3Cl)nc2-c2ccc(OC)cc2)cc1`, the melting point is 142 to 143 °C.
Regarding `CN1C(=O)c2cnc(-c3ccccc3)nc2N(C(=O)CCl)c2ccccc21`, the melting point was 189 to 190 °C.
The same measure for `CC(C)C1Sc2ccccc2N(CC(=O)O)C1=S` (stereo unspecified): 175 to 176 °C; for `Cc1cc(Cc2cc(C(C)(C)C)cc(-n3nc4ccccc4n3)c2O)c(O)c(C(C)(C)C)c1`: 175 °C.
In the case of `Nc1nc2c(ncn2/C=C2/CC2(CO)CO)c(=O)[nH]1`, the melting point was greater than 300 °C.
Take `CCOC(=O)C(C)(NC(=O)Cc1ccc2ccccc2c1)C(=O)OCC`: the melting point was in the range of 148 to 150 °C.
The value for `c1c(N2CCCC2)nc(NC23CC4CC(CC(C4)C2)C3)nc1N1CCNCC1` was 160 to 164 °C.
In turn, `CCOC(=O)Cc1ccc(CCC(NC(=O)OC)C(=O)O)cc1` (stereo unspecified) came in with a melting point of 108 to 110 °C.
The value for `Cc1c(Br)cnc(NC(=O)C2CC2)c1[N+](=O)[O-]` was 205 °C; that for `COc1cccc2c(=O)c3c(O)cc(OCC4CO4)cc3oc12` (stereo unspecified) was 182 °C.
Regarding `Cn1cc(C(=O)NCc2ccc(Cl)cc2)c(=O)c2cc(I)sc21`, the melting point was in the range of 236 to 237 °C.
The value for `O=C1C(c2ccc(O)cc2)=C(c2ccccc2)c2ccc(O)cc21` was 100 to 110 °C; that for `COc1cc2oc(=O)c(CCCl)c(C)c2cc1O` was 230 to 235 °C; that for `O=C1NC(=S)SC1=Cc1ccc(OCc2ccccc2)cc1` was greater than 225 °C.
`Cc1cccc(COc2cccc(OCc3ccc4cc(F)c(F)cc4n3)c2)c1OCC(=O)O` showed a melting point of 94 to 95 °C.
Consider `Cc1cccc2c(C(=O)C(=O)NC3=CC(=O)OC3)c(C)n(Cc3ccc(Cl)cc3)c12`, for which the melting point lay in the range of 283 to 285 °C.
The same measure for `O=C(C1CCCCC1)N1CC(=O)N(CCc2ccccc2)C(O)C1` (stereo unspecified): 134 °C; for `Cc1c(C(N)=NO)ncn1-c1cccc(Oc2ccccc2)c1`: 196 to 198 °C; for `CS(=O)(=O)N1CCN(c2n[nH]c(-c3ccc(Cl)cc3)c2-c2ccncc2)CC1`: 245 to 248 °C.
The same measure for `CC(=O)c1c(-c2ccc(F)cc2)nn(CC2CC2)c(=O)c1Nc1cccc2ncccc12`: 169 to 170 °C; for `CCNc1nc(-c2ccc(F)cc2C)c2ccc(=O)n(-c3c(F)cccc3F)c2n1`: 195 to 196 °C.
As to `COc1cccc(CC(NC(=O)CCl)c2ccccc2)c1` (stereo unspecified), the melting point lay within 104 to 105 °C.
`N#Cc1ccc(O[C@@H]2c3ncccc3C[C@H]2N2CCC[C@@H](N)C2)c(Cl)c1` yielded a melting point of 180 °C.
`COc1cc(C(=O)NS(=O)(=O)c2ccccc2)ccc1Cc1csc2ccc(NC(=O)OC3CCCC3)cc12` displayed a melting point of 253 to 254 °C.
The value for `COc1cc(N)c(Cl)cc1C(=O)NC1CCN(CC2CCN(C(=O)c3ccccc3)CC2)CC1` was 114 to 116 °C; that for `Clc1cc(CCc2ccccn2)c2oc(-c3cnc4ccccc4c3)nc2c1` was 124 to 125 °C; that for `OC1CSC(Oc2cc(-c3ccncc3)ccc2Cl)C(O)C1O` (stereo unspecified) was 189 °C.
`CC(C)C1(C)CC(=O)CC(C)(C)N1` (stereo unspecified) registered a melting point of 47 to 53 °C.
Take `CC(C)N1C(=O)NC(c2ccc3c(c2)OCO3)c2cc3c(cc21)OCCO3` (stereo unspecified): the melting point fell in the range of 197 to 200 °C.
Consider `Nc1ccc2c(=O)[nH]c(=O)n(-c3ccccc3)c2n1`, for which the melting point was greater than 300 °C.
The same measure for `CCN(CCO)C(=O)C1=C(C(=O)Nc2cc(OC3CCCC3)c(Cl)cc2F)CCCC1`: 132 to 133 °C; for `CCCCCCCCCCCCCCCC(=O)OCc1cc2c(s1)-c1ccccc1OC2c1ccccc1` (stereo unspecified): 64 to 65 °C.
The value for `Cn1c(NC(=N)N)nc2ccccc21` was 178 to 179 °C.
The same measure for `CCOP(=O)(CC(=O)Nc1c(C(C)C)cccc1C(C)C)NCC(c1ccccc1)c1ccccc1` (stereo unspecified): 172 to 176 °C; for `C=CCN1C(=O)C2CC(c3ccc(N)cc3)(C2)C1=O`: 176 to 178 °C; for `COC1(OC)CC(c2ccccc2)N(O)C(c2ccccc2)C1` (stereo unspecified): 172 to 175 °C.
For `CNC(=S)N(C)c1ccc(Cl)nc1`, the melting point was 87.5 to 88 °C.
The value for `Cc1cc(C)cc(NCc2ccc3nc(NC4CCN(CCS(N)(=O)=O)CC4)n(Cc4nc(C)ccc4O)c3c2)c1` was 142 °C; that for `COC(=O)C(Cc1ccc(O)cc1)NC(=O)C(CO)NC(=O)C(Cc1c[nH]c2ccccc12)NC(=O)OCc1ccccc1` (stereo not drawn) (Cbz-Trp-Ser-Tyr-OMe; configuration not given here) was 149 to 152 °C; that for `OC(c1cncs1)(c1cncs1)C(F)(F)F` was 109 to 110 °C.
The value for `COC1CC(c2ccc(-c3ccc(C#N)cc3)cc2)C(OC)O1` (stereo unspecified) was 149 to 150 °C; that for `O=C1C2=C(CCCC2)C(=O)N1c1ccc2c(c1)NC(=O)C21CC1` was 274 to 276 °C; that for `Cc1oc(-c2ccco2)nc1CCOc1ccc(N)cn1` was 88 to 90 °C.
The same measure for `CN(C)c1ccc(NC(=O)NC2CCCC2)c(C(=O)NCC2CCN(C(c3ccccc3)c3ccccc3)CC2)c1`: 211 to 213 °C; for `CCOC(=O)CSc1cc(C)nc(N)n1`: 65 to 69 °C; for `O=C1N(CCCCl)c2ccccc2C12COc1cc3c(cc12)OCO3` (stereo unspecified): 144 to 146 °C.
Turning to `COc1ccc2ccc(OC)c3c2c1CCC3CCNC(=O)C1CC1` (stereo unspecified), the melting point was 120 °C.
The same measure for `CCc1nc2c(N)nc3ccccc3c2n1CCOCCS(C)(=O)=O`: 160 to 163 °C.
The same measure for `CC(C)=NOCc1nc2c(N)nc3ccccc3c2n1CCNC(=O)NC(C)C`: 230 to 231 °C.
The same measure for `OCC1(c2ccccc2)CCN(CCC(c2ccccc2)(c2ccccc2)c2ccccn2)CC1`: 148 to 151 °C.
In the case of `CCOC(=O)c1cn(C)c2cc(-n3cccc3)c(F)cc2c1=O`, the melting point lay within 253 to 254 °C.
The same measure for `Cc1ccc(C2c3[nH]c4ccccc4c3CCN2C(=O)C=Cc2cc([N+](=O)[O-])ccc2Cl)cc1` (stereo unspecified): 211 to 213 °C; for `COC(=O)c1ccc(OC)c2oc3ccnc(O)c3c12`: 205 to 207 °C.
For `CC(C)(C)OC(=O)N1c2ccccc2CC1COc1ccc(CC2SC(=O)N(C(c3ccccc3)(c3ccccc3)c3ccccc3)C2=O)cc1` (stereo unspecified), the melting point was 85.4 to 87.2 °C.
The same measure for `Oc1nccc2cccnc12`: 236 to 239 °C.
The value for `NC(=O)c1ncn2c1[C@@H]1CCN1C(=O)c1c-2cccc1C(F)(F)F` was greater than 300 °C; that for `COCC1CN(c2ccc3cc(OCCC#N)ccc3c2)C(=O)O1` (stereo unspecified) was 110 to 112 °C; that for `COCCNC(=O)Nc1ccc([N+](=O)[O-])cc1O` was 190 to 191 °C.
The same measure for `NC(=O)c1ccc2c(c1)S(=O)(=O)N=CN2C1CC1`: 278 to 281 °C.
On to `CCOC(=O)c1c(C(F)(F)F)nc(C(F)F)c(C(=O)OC)c1NC(C)C`, for which the melting point lay in the range of 53 to 55 °C.
The same measure for `Nc1c(-c2ccc(NS(=O)(=O)c3ccccc3Cl)cc2F)cnc2c(CO)cnn12`: 204 to 208 °C.
